The values below are quoted from earlier work in patent US20230190776A1, “ENCAPSULATION OF BIOACTIVE INGREDIENTS BY MULTIPLEX EMULSION” (The Board of Regents of the University of Texas System, priority 2021, published 2023).

For the series the following is noted: up to 14 weeks of administrations; species not given.

In the case of `O=C1CCC[C@@H]2[C@H]3CCC[N+]4([O-])CCC[C@@H](CN12)[C@@H]34` (stereo partly shown) [Oxymatrine], the lethal dose result is given as “around 300 mg/kg”.
